These results are taken from patent US5530126A, “Process for the preparation of substituted 6-(pyrazol-3yl)-1,4-benzoxazin-3-ones” (Monsanto Company, priority 1994, dated 1996).

Usually inhibition stands for the percentage by which the read-out fell short of the control.

The structures appear in SMILES notation.

What all share (assay type): in vivo
The test system of assay [1] is Barnyardgrass. The assay can be described thus: Pre-emergence herbicide test. Conditions: Echinochloa crus-galli, read-out: % plant inhibition (Bygr); for inhibition at 1120 g/ha: 1.12 kg/ha; for inhibition at 11210 g/ha: 11.21 kg/ha. Summed up:
(§1)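 Seeds placed atop topsoil compacted to 0.95 to 1.27 cm below pan rim. Active ingredient (known amount) applied to seed bed in organic solvent or water. Untreated topsoil layer added to level; greenhouse growth with subirrigation; % inhibition at usually 11 days.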

Assay [2] has as its system Downy Brome. The assay can be described thus: Pre-emergence herbicide test. As to conditions: Bromus tectorum, read-out: % plant inhibition (Dobr); for inhibition at 1120 g/ha: 1.12 kg/ha; for inhibition at 11210 g/ha: 11.21 kg/ha. The procedure, abridged:
as §1

For assay [3], the system named is Morningglory. The experiment in a line: Pre-emergence herbicide test. Conditions: Ipomoea, read-out: % plant inhibition (Mogl); for inhibition at 1120 g/ha: 1.12 kg/ha; for inhibition at 11210 g/ha: 11.21 kg/ha. The procedure, abridged: as §1
The subject of assay [4] is Wild buckwheat. The experiment in a line: Pre-emergence herbicide test. As to conditions: Fallopia convolvulus, read-out: % plant inhibition (Wibw); for inhibition at 1120 g/ha: 1.12 kg/ha; for inhibition at 11210 g/ha: 11.21 kg/ha. Summed up:
as §1

Assay [5] concerns Indian Mustard. The assay can be described thus: Pre-emergence herbicide test. As to conditions: Brassica juncea, read-out: % plant inhibition (Inmu); for inhibition at 1120 g/ha: 1.12 kg/ha; for inhibition at 11210 g/ha: 11.21 kg/ha. Summed up: as §1
Assay [6] has as its system Cocklebur. The assay can be described thus: Pre-emergence herbicide test. Conditions: Xanthium strumarium, read-out: % plant inhibition (Cobu); for inhibition at 1120 g/ha: 1.12 kg/ha; for inhibition at 11210 g/ha: 11.21 kg/ha. Summed up:
as §1

Assay [7] relates to Velvetleaf. The experiment in a line: Pre-emergence herbicide test. Conditions: Abutilon theophrasti, read-out: % plant inhibition (Vele); for inhibition at 1120 g/ha: 1.12 kg/ha; for inhibition at 11210 g/ha: 11.21 kg/ha. Summed up: as §1
Assay [8] deals with Seedling johnsongrass. The experiment in a line: Pre-emergence herbicide test. Conditions: Sorghum halepense, read-out: % plant inhibition (Sejg); for inhibition at 1120 g/ha: 1.12 kg/ha; for inhibition at 11210 g/ha: 11.21 kg/ha. Summed up:
as §1

Assay [9] deals with Annual bluegrass. The experiment in a line: Pre-emergence herbicide test. Conditions: read-out: % plant inhibition (Anbg); for inhibition at 1120 g/ha: 1.12 kg/ha; for inhibition at 11210 g/ha: 11.21 kg/ha. Summed up: as §1
For assay [10], the system named is Yellow nutsedge. The assay can be described thus: Pre-emergence herbicide test. As to conditions: Cyperus, read-out: % plant inhibition (Yens); for inhibition at 1120 g/ha: 1.12 kg/ha; for inhibition at 11210 g/ha: 11.21 kg/ha. The procedure, abridged:
as §1

For assay [11], the system named is Barnyardgrass. The experiment in a line: Post-emergence herbicide test. Conditions: Echinochloa crus-galli, read-out: % plant inhibition (Bygr); for inhibition at 1120 g/ha: 1.12 kg/ha; for inhibition at 11210 g/ha: 11.21 kg/ha. Summed up: (§2)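 Foliar spray trial in greenhouse pans: two- to three-week-old plants treated at 200 gallons/acre by atomizer, spray containing about 0.4% emulsifier. Percent inhibition compared with untreated controls was recorded around day 11.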

Assay [12] concerns Downy Brome. The assay can be described thus: Post-emergence herbicide test. As to conditions: Bromus tectorum, read-out: % plant inhibition (Dobr); for inhibition at 1120 g/ha: 1.12 kg/ha; for inhibition at 11210 g/ha: 11.21 kg/ha. The procedure, abridged: as §2
Assay [13] deals with Morningglory. The experiment in a line: Post-emergence herbicide test. As to conditions: Ipomoea, read-out: % plant inhibition (Mogl); for inhibition at 1120 g/ha: 1.12 kg/ha; for inhibition at 11210 g/ha: 11.21 kg/ha. The procedure, abridged: as §2
Assay [14] deals with Wild buckwheat. The experiment in a line: Post-emergence herbicide test. As to conditions: Fallopia convolvulus, read-out: % plant inhibition (Wibw); for inhibition at 1120 g/ha: 1.12 kg/ha; for inhibition at 11210 g/ha: 11.21 kg/ha. The procedure, abridged: as §2
The subject of assay [15] is Indian Mustard. The assay can be described thus: Post-emergence herbicide test. As to conditions: Brassica juncea, read-out: % plant inhibition (Inmu); for inhibition at 1120 g/ha: 1.12 kg/ha; for inhibition at 11210 g/ha: 11.21 kg/ha. Summed up:
as §2

The test system of assay [16] is Cocklebur. The experiment in a line: Post-emergence herbicide test. Conditions: Xanthium strumarium, read-out: % plant inhibition (Cobu); for inhibition at 1120 g/ha: 1.12 kg/ha; for inhibition at 11210 g/ha: 11.21 kg/ha. The procedure, abridged: as §2
The test system of assay [17] is Velvetleaf. The experiment in a line: Post-emergence herbicide test. Conditions: Abutilon theophrasti, read-out: % plant inhibition (Vele); for inhibition at 1120 g/ha: 1.12 kg/ha; for inhibition at 11210 g/ha: 11.21 kg/ha. The procedure, abridged:
as §2

The test system of assay [18] is Seedling johnsongrass. The assay can be described thus: Post-emergence herbicide test. As to conditions: Sorghum halepense, read-out: % plant inhibition (Sejg); for inhibition at 1120 g/ha: 1.12 kg/ha; for inhibition at 11210 g/ha: 11.21 kg/ha. Summed up:
as §2

The subject of assay [19] is Annual bluegrass. The assay can be described thus: Post-emergence herbicide test. As to conditions: read-out: % plant inhibition (Anbg); for inhibition at 1120 g/ha: 1.12 kg/ha; for inhibition at 11210 g/ha: 11.21 kg/ha. Summed up: as §2
Assay [20] concerns Yellow nutsedge. The experiment in a line: Post-emergence herbicide test. As to conditions: Cyperus, read-out: % plant inhibition (Yens); for inhibition at 1120 g/ha: 1.12 kg/ha; for inhibition at 11210 g/ha: 11.21 kg/ha. The procedure, abridged: as §2

With `Cn1nc(-c2cc(S)c(Cl)cc2Cl)c(Cl)c1C(F)(F)F` [Compound 93], the inhibition at 1120 g/ha in [1] turned out to be 0%; in [2], 0%; in assay [3], 30%; in [4], 20%; in assay [5], 10%; in assay [6], 20%. The inhibition at 1120 g/ha in [7] was 20%; in [8], 0%; in assay [9], 0%; in [10], 0%; in [11], 70%; in assay [12] it was 50%. Besides, the inhibition at 1120 g/ha in assay [13] amounted to 60%; in assay [14], 90%; in [15] it was 60%; in [16], 70%; in [17], 90%; in assay [18], 40%. Besides, the inhibition at 1120 g/ha in [19] was determined as 10%; in [20], 0%.

For the compound `Cn1nc(-c2cc([N+](=O)[O-])c(Cl)cc2F)c(Cl)c1C(F)F` [Compound 198], the inhibition at 1120 g/ha stood at 0% in assay [1]; 0% in assay [2]; 0% in assay [3]; 70% in assay [4]; 20% in assay [5]; 0% in [6]. In addition, the inhibition at 1120 g/ha in assay [7] came to 80%; in assay [8], 0%; in assay [9], 0%; in assay [10], 0%; in assay [11] it was 50%; in [12], 70%. In addition, the inhibition at 1120 g/ha came out at 90% in assay [13]; 100% in assay [14]; 100% in [15]; 70% in [16]; 100% in assay [17]; 70% in assay [18]. For the same compound, the inhibition at 1120 g/ha amounted to 50% in [19] and 0% in assay [20].

With `CCS(=O)(=O)Nc1cc(-c2nn(C)c(C(F)(F)F)c2Cl)c(Cl)cc1Cl` [Compound 92], the inhibition at 1120 g/ha worked out at 0% in assay [1]; 0% in assay [2]; 80% in assay [3]; 80% in assay [4]; 20% in [5]; 20% in [6]. Besides, the inhibition at 1120 g/ha worked out at 90% in assay [7]; 0% in assay [8]; 0% in assay [9]; 0% in assay [10]; 30% in assay [11]; 50% in [12]. Moreover, the inhibition at 1120 g/ha in assay [13] was 100%; in assay [14] it was 80%; in assay [15] it was 80%; in [16] it was 80%; in assay [17], 100%; in [18], 40%. The inhibition at 1120 g/ha in assay [19] amounted to 30%; in assay [20] it was 20%.

As for `Cn1nc(-c2cc(C(Br)Br)c(Cl)cc2F)c(Cl)c1C(F)(F)F` [Compound 132, 4-chloro-3-[4-chloro-5-(dibromomethyl)-2-fluorophenyl]-1-methyl-5-(trifluoromethyl)-1H-pyrazole], the inhibition at 11210 g/ha in assay [1] was 90%; in assay [2] it was 80%; in assay [3], 100%; in assay [4], 100%; in assay [5] it was 90%; in assay [6], 70%. Also, the inhibition at 11210 g/ha came to 100% in assay [7]; 70% in [8]; 60% in assay [9]; 30% in assay [10]; 100% in assay [11]; 80% in assay [12]. Further, the inhibition at 11210 g/ha in assay [13], in assay [14], in assay [15], in assay [16], in assay [17] and in assay [18] was 100% throughout. Besides, the inhibition at 11210 g/ha was found to be 60% in [19] and 30% in [20].

`COc1cc(F)c(-c2c(Cl)c(C(F)(F)F)nn2C)cc1F` [Compound 71]: the inhibition at 11210 g/ha in assay [1] was 0%; in assay [2], 10%; in assay [3], 30%; in [4], 70%; in [5], 30%; in [6], 0%. The inhibition at 11210 g/ha in [7] amounted to 60%; in assay [8], 40%; in assay [9] it was 90%; in [10] it was 0%; in [11], 0%; in assay [12] it was 0%. Further, the inhibition at 11210 g/ha in assay [13] stood at 20%; in assay [14] it was 40%; in assay [15], 20%; in assay [16] it was 30%; in [17], 20%; in assay [18] it was 0%. Also, the inhibition at 11210 g/ha in [19] and in assay [20] was 0% in each case.

Consider `Cc1cc(-c2nn(C)c(C(F)(F)F)c2Br)c(F)cc1Cl` [Compound 125], for which the inhibition at 1120 g/ha in assay [1] was 100%; in assay [2] it was 90%; in assay [3], 90%; in assay [4] it was 100%; in [5] it was 100%; in [6] it was 30%. For the same compound, the inhibition at 1120 g/ha turned out to be 100% in [7]; 100% in [8]; 100% in assay [9]; 0% in assay [10]; 0% in assay [11]; 0% in [12]. Also, the inhibition at 1120 g/ha was determined as 30% in assay [13]; 100% in [14]; 30% in assay [15]; 40% in assay [16]; 100% in assay [17]; 0% in assay [18]. Further, the inhibition at 1120 g/ha in assay [19] came to 20%; in [20], 0%.

Turning to `COCCOCc1cc(-c2nn(C)c(C(F)(F)F)c2Cl)c(F)cc1Cl` [Compound 117], the inhibition at 1120 g/ha in assay [1] came out at 100%; in [2] it was 90%; in assay [3], 90%; in assay [4], 100%; in assay [5] it was 100%; in assay [6], 70%. The inhibition at 1120 g/ha in [7] amounted to 100%; in assay [8], 70%; in assay [9], 100%; in [10], 0%; in assay [11], 100%; in assay [12], 100%. In addition, the inhibition at 1120 g/ha in assay [13] was found to be 100%; in assay [14] it was 100%; in [15] it was 90%; in assay [16] it was 90%; in assay [17], 100%; in [18], 100%. The results for the inhibition at 1120 g/ha in [19] and in assay [20] were 90% and 20%, respectively.
